Consider five compounds from EP0273199A2, “Uses of 3,4-diphenyl piperidine derivatives or medicines, 3,4-diphenyl piperidine derivatives, and process for their preparation” (LABORATOIRES HOECHST S.A., priority 1986, dated 1988).

Where two headings read alike, the source gives them in different places.

In one test the test system is Apomorphin 16 mg/kg. The test is described as follows: Antiapomorphine activity (apomorphine 16 mg/kg s.c., hypothermia). The test is classed as in vivo, Maus. As for the experimental part:
Zur Zeit 0 nach Ausgleich der Reaktaltemperaturen werden die Mäuse (6 pro Gruppe) in deren Beobachtung gestattende Einzelkäfige (11 x 3,5 x 4 cm) eingeetzt. 30 Minuten nach i.p. bzw. p.o. Verabreichung der Testsubstanz erhalten sie Apomorphin subkutan in einer Dosis von 16 mg/kg. Die Rektaltemperatur wird 30 Minuten nach dem Apomorphin gemessen. Die Kontrolltiere erhalten destilliertes Wasser statt der zu untersuchenden Verbindungen. Die bei diesen Kontrolltieren, die 16 mg/kg Apomorphin erhalten haben, beobachtete Hypothermie liegt im Durchschnitt bei 33°C. Für jede Verbindungsdosis berechnet man die prozentuale Hemmung der Hypothermie.

The subject of test [1] is durch Oxotremorin induzierten Hypothermie. Description: Antioxotremorine activity (oxotremorine-induced hypothermia). The test is classed as in vivo, Maus. To be noted: ip, read-out: Erste wirksame Dosis Oxotremorin. As for the experimental part:
Nach Ausgleich der Rektaltemperaturen erhalten Mäuse (6 pro Gruppe) entweder destillietes Wasser oder die verschiedenen zu untersuchenden Verbindungen i.p.
30 Minuten danach verabreicht man intraperitoneal Oxotremorin in einer Dosis von 0,5 mg/kg.
Die Mäuse werden dan beobachtet: Tremor wird je nach der Intensität von 0 bis 3 bewertet, und die Akinesie wird alle 10 Minuten über einen Zeitraum von 30 Minuten auf Vorliegen oder Fehlen bestimmt.
Außerdem beobachtet man 2 Stunden lang das Erscheinen peripherer Symptome (Tränen, Darmentleerung). Die Rektaltemperatur wird alle 30 Minuten über eine Zeitraum von 2 Stunden nach der Verabreichung des Oxotremorins gemessen.
Die eine antidepressive Aktivität besitzenden Produkte wirken der durch Oxotremorin induzierten Hypothermie entgegen.
Für jede Dosis der Verbindung berechnet man die prozentuale Hemmung der Hypothermie.

A further test concerns Toxizität des Yohimbins. The test is described as follows: Potentiation of yohimbine toxicity. The class given is in vivo, Maus. To be noted: for minimal effective dose: ip. As for the experimental part: Wirkung auf die Toxizität des Yohimbins
Zur Zeit 0 erhalten die Mäuse entweder destilliertes Wasser oder verschiedene zu untersuchende Verbindungen i.p. 30 Minuten danach verabreicht man ihnen subkutan eine infratoxische Dosis von 25 mg/kg Yohimbinchlorhydrat.
Die Mortalität wird jede Stunde über einen Zeitraum von 4 Stunden verfolgt und dann nach 24 Stunden notiert.
Die eine antidepressive Aktivität besitzenden Produkte verursachen eine Potenzierung der Toxizität des Yohimbins.

Test [2] concerns durch Reserpin induzierten Hypothermie. The test is described as follows: Antireserpine activity (reserpine-induced hypothermia). The test is classed as in vivo, Maus. The note with it: ip. Here is the method:
Zur Zeit 0 erhalten die Mäuse intraperitoneal Reserpin (2,5 mg/kg).
4 Stunden danach, wenn die Hypothermie genügend stark erscheint (30 bis 33°C), verabreicht man die verschiedenen zu untersuchenden Verbindungen i.p. oder p.o. Alle 30 Minuten über einen Zeitraum von 2 Stunden mißt man die Rektaltemperatur mit einer auf konstante Tiefe eingeführten, ein Thermoelement tragenden Sonde. Die Rektaltemperatur der mit verschiedenen erfindungsgemäßen Verbindungen behandelten Tiere wird mit der Temperatur einer Kontrollgruppe verglichen, die destilliertes Wasser auf die gleiche Weise wie die untersuchten Verbindungen erhält.
Die Akinesie (fehlende Bewegungen) und Ptose (Öffnungsgrad des Augenlids von 0 bis 4 nach Rubin u.a 1957) werden ebenfalls alle 30 Minuten über einen Zeitraum von 2 Stunden bewertet.
Die eine antidepressive Aktivität besitzenden Produkte wirken der durch Reserpin induzierten Hypothermie entgegen. Für jede Dosis der verabreichten Verbindung berechnet man die prozentuale Hemmung der Hypothermie.

The subject of a further test is stereotypen Bewegungen. The test is described as follows: Search for stereotyped movements. The class given is in vivo, Ratte. The note with it: rat. The text has this:
Suche nach stereotypen Bewegungen an der Ratte
Unmittelbar nach i.p. oder p.o. Verabreichung der zu unteruchenden Verbindungen werden die Tiere (6 Ratten pro Gruppe) in 20 x 10 x 10 cm große, mit einem Edelstahldeckel mit Löchern von 1 cm Durchmesser versehene Einzelkäfige aus durchsichtigem Kunststoff eingesetzt. Die stereotypen Bewegungen (Bewegungen der Mundhöhle, Schnüffeln, Lecken oder Kauen) werden nach der von Simon und Chermat (J. Pharmacol. Paris, 1972, 3, 235-238) beschriebenen Methode alle 10 Minuten von 0 bis 3 bewertet, bis sie bei allen Tieren verschwunden sind.

The test system of another test is Motoraktivität. The test is described as follows: Actimetry (motor activity, photocell actimeter). The test is classed as in vivo, Maus. The note with it: for Aktimetrie: mouse, direction of change of motor activity; for Motilität: i.p., direction of change; for minimal effective dose: ip, read-out: Erste wirksame Dosis Motilität. From the text:
Die Motoraktivität wird mittels Photozellenaktimetern bestimmt (Boissier und Simon, Arch. Int. Pharmacodyn. 1965, 158, 212-221).
Die Mäuse (10 oder ein Vielfaches von 10 pro Gruppe) werden unmittelbar nach i.p. Verabreichung der zu untersuchenden Verbindungen in das Aktimeter eingesetzt. Die Motoraktivität wird danach bis zur 60. Minute gemessen. De Zähler werden nach 30 Minuten abgelesen und dann auf 0 zurückgestellt und im Verlauf von 30 Minuten alle 10 Minuten abgelesen.
Die Beweglichkeit der mit den verschiedenen Verbindungen behandelten Tiere wird mit derjenigen einer destilliertes Wasser erhaltenden Kontrollgruppe verglichen.
Die eine psychostimulierende Aktivität besitzenden Produkte verursachen eine Zunahme der Beweglichkeit.

Test [3] relates to Maus. The test is described as follows: Behavioural despair test (Porsolt forced swimming). To be noted: mouse, 4 mg/kg i.p. The class given is in vivo. The text has this:
Test auf verzweifeltes Verhalten, wie von Porsolt u.a. (Arch. Int, Pharmacodyn. Ther. 229, 327 - 336, 1977) beschrieben.
Die Verbindungen werden intraperetoneal 30 Minuten vor dem Test verabreicht, und die Tiere werden vor dem erzwungenen Schwimmtest isoliert gehalten. Man bewertet die Dauer der Unbeweglichkeitsperioden in Sekunden ausgedrückt, die von der 2. bis zur 6. Minute nach dem Einsetzen des Tieres in Wasser gezählt werden.

For test [4], the system named is Apomorphin 1 mg.kg^-1 s.c. Description: Apomorphine 1 mg/kg s.c. antagonism (no method given). The class given is in vivo. To be noted: ip, Tabelle Ib; read-out: Erste wirksame Dosis Apomorphin 1 mg.kg^-1 s.c.
Test [5] concerns Maus. The test is described as follows: Tail suspension test. The test is classed as in vivo. The note with it: for minimal effective dose: ip. The text has this: Schwanzaufhängungstest an der Maus wie von Stéru u.a. beschrieben (Psychopharmacology 85, 367-370, 1985).
Die Substanzen werden intraperitoneal 30 Minuten vor dem Test verabreicht und die Tiese isoliert (10 Mäuse pro Dosis).
Man bewertet die Dauer der Unbeweglichkeit, ausgedrückt in Sekunden über die 6 Minuten des Tests. Man untersucht auf eine Verkürzung dieser Unbeweglichkeitszeit.

Setting [6] is: Mus musculus, ip, read-out: Erste wirksame Dosis Apomorphin 16 mg/kg, mouse, i.p., only or lowest value of the cell.
The mark [7] stands for this setting: Mus musculus, read-out: Erste wirksame Dosis Reserpin, mouse, i.p., only or lowest value of the cell.
The mark [8] stands for this setting: ip, Tabelle Ib, read-out: Erste wirksame Dosis Apomorphin 16 mg.kg^-1 s.c.
[9] abbreviates: Tabelle Ib, read-out: Erste wirksame Dosis T.S.T. Maus.
The mark [10] stands for this setting: Tabelle Ib, read-out: Erste wirksame Dosis Reserpin.

Turning to `c1ccc([C@@H]2CCNC[C@H]2c2ccccc2)cc1` (relative stereo) [21 (Base), trans-3,4-Diphenylpiperidin], the minimal effective dose (in the test on Apomorphin 16 mg/kg (setting [6]); in [1] (Mus musculus); in [2] (setting [7])) was 4 mg/kg in each case. The “Erste wirksame Dosis Yohimbin” value in the test with Toxizität des Yohimbins (mouse, i.p., only or lowest value of the cell) was found to be 4 mg/kg. For the same compound, in the test with stereotypen Bewegungen (64 mg/kg p.o.), the “Stereotype Bewegung” value is recorded as 0(64p.o.).
For the compound `Clc1ccc(C2CCNCC2c2ccccc2)cc1` (stereo not drawn) [Beispiel 12, cis-4-(4-Chlorphenyl)-3-phenylpiperidin], in the test with Motoraktivität, the Aktimetrie result is “↘ =”. Also, the minimal effective dose in the test with Apomorphin 16 mg/kg (setting [6]) is 2 mg/kg; in [1] (Mus musculus), 16 mg/kg; in the test with Toxizität des Yohimbins (Mus musculus, read-out: Erste wirksame Dosis Yohimbin, mouse, i.p., only or lowest value of the cell), 16 mg/kg; in [2] (setting [7]), 4 mg/kg. Moreover, the “Stereotype Bewegung” value in the test on stereotypen Bewegungen (64 mg/kg i.p.) is 0(64i.p.).
For `CN1Cc2c(N)cccc2C(c2ccccc2)C1` (stereo not drawn) [NOMIFENSIN], the “% Antagonismus” value in the test on Maus [3] is recorded as 39%; in the test with Maus [5] (mouse, 0,06 mg/kg i.p.) it was 35%; in the test on Maus [5] (mouse, 0,25 mg/kg i.p.), 55%; in the test with Maus [5] (mouse, 1 mg/kg i.p.), 66%; in the test on Maus [5] (mouse, 4 mg/kg i.p.), 80%. Also, the “Dauer der Unbeweglichkeit” value is listed as 120 ± 23 p < 0,001 Sekunden in the test with Maus [3] (30 min before test); 59 ± 9 Sekunden in the test with Maus [5] (mouse, 0,06 mg/kg i.p.); 41 ± 6 p < 0,01 Sekunden in the test with Maus [5] (mouse, 0,25 mg/kg i.p.); 31 ± 6 p < 0,01 Sekunden in the test on Maus [5] (mouse, 1 mg/kg i.p.); 18 ± 5 p < 0,001 Sekunden with Maus [5] (mouse, 4 mg/kg i.p.). Further, the Motilität result in the test with Motoraktivität (Tabelle Ib) was “↗”. In addition, the minimal effective dose in the test with Motoraktivität (Tabelle Ib) worked out at 4 mg/kg; in the test with Apomorphin 16 mg/kg (setting [8]), 2 mg/kg; in [1], 16 mg/kg; in [4], 2 mg/kg; with Maus [5] (setting [9]), 0.25 mg/kg; in the test on Toxizität des Yohimbins (Tabelle Ib, read-out: Erste wirksame Dosis Yohimbin) it was 4 mg/kg. In test [2] (setting [10]), the minimal effective dose was 8 mg/kg.
In the case of `CCOc1ccccc1OCC1CNCCO1` (stereo not drawn) [VILOXAZIN, reference compound], the Motilität result in the test on Motoraktivität (Tabelle Ib) is given as “↘”. Besides, the minimal effective dose in the test on Motoraktivität is 16 mg/kg; in the test with Apomorphin 16 mg/kg (ip, read-out: Erste wirksame Dosis Apomorphin 16 mg.kg^-1 s.c., i.p., Tabelle Ib), 8 mg/kg; in test [1], 4 mg/kg; in test [4], over 32 mg/kg; in the test with Maus [5] (read-out: Erste wirksame Dosis T.S.T. Maus), 8 mg/kg; in the test on Toxizität des Yohimbins (read-out: Erste wirksame Dosis Yohimbin, i.p., Tabelle Ib) it was 8 mg/kg. Moreover, the minimal effective dose in test [2] (read-out: Erste wirksame Dosis Reserpin, i.p., Tabelle Ib) is 4 mg/kg.
For the compound `FC(F)(F)c1ccc([C@@H]2CCNC[C@H]2c2ccccc2)cc1` (racemic) [Beispiel 3, trans-3-Phenyl-4-(4-trifluormethylphenyl)-piperidin-chlorhydrat], the Motilität result in the test on Motoraktivität (Tabelle Ib) was “↘”. Further, the minimal effective dose in the test with Motoraktivität (Tabelle Ib) came to 32 mg/kg; in the test with Apomorphin 16 mg/kg (setting [8]), 2 mg/kg; in the test with Apomorphin 16 mg/kg (ip, mouse, i.p., only or lowest value of the cell, read-out: Erste wirksame Dosis Apomorphin 16 mg/kg), 2 mg/kg; in the test with Apomorphin 16 mg/kg (mouse, further value in the same cell, route not stated (lowest = i.p.; p.o. also tested), read-out: Erste wirksame Dosis Apomorphin 16 mg/kg) it was 4 mg/kg; in test [1] (Tabelle Ib) it was 8 mg/kg; in test [1] (mouse, i.p.), 8 mg/kg. Also, the minimal effective dose is 2 mg/kg in test [4]; 4 mg/kg with Maus [5] (setting [9]); at least 4 mg/kg in the test on Maus [5] (mouse, i.p., footnote of Tabelle 1, read-out: tail suspension test= positiv ab); 1 mg/kg in test [2] (setting [10]); 1 mg/kg in test [2] (mouse, i.p., only or lowest value of the cell, read-out: Erste wirksame Dosis Reserpin). Also, the Aktimetrie entry in the test with Motoraktivität is “↘”. Also, the “Stereotype Bewegung” value with stereotypen Bewegungen (64 mg/kg i.p.) is on record as 0(64i.p.).
